According to patent US20230295197A1, “STAT5 and STAT6 Degraders and Uses Thereof” (REGENTS OF THE UNIVERSITY OF MICHICAN, priority 2022, published 2023):
Like-named read-outs stand apart in the source and are kept apart here.

Key:
[1] = tested on: STAT5; test: Immunoblotting (Western blot) analysis of STAT5 degradation efficiency of degraders in treated cells; type: cell-based
Outline: (§1)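 Each data point uses roughly one million cells dosed as indicated; pellets are lysed on ice, freeze-thawed, and clarified. Reduced, denatured samples (95 °C, 5 min) run on SDS gels, then membranes receive rabbit mAbs to STAT5 or STAT6 plus mouse anti-GAPDH overnight, followed by dye-labelled secondaries for fluorescence imaging.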

[2] = molecular target: T1, STAT6 (Homo sapiens, UniProt P42226); test: Immunoblotting (Western blot) analysis of STAT6 degradation efficiency of degraders in treated cells; type: cell-based
T1 construct: endogenous in cells; host or cells: MOLM-16, KU-812, SKNO1, MB231, L1236
T1 sequence (P42226 1-847): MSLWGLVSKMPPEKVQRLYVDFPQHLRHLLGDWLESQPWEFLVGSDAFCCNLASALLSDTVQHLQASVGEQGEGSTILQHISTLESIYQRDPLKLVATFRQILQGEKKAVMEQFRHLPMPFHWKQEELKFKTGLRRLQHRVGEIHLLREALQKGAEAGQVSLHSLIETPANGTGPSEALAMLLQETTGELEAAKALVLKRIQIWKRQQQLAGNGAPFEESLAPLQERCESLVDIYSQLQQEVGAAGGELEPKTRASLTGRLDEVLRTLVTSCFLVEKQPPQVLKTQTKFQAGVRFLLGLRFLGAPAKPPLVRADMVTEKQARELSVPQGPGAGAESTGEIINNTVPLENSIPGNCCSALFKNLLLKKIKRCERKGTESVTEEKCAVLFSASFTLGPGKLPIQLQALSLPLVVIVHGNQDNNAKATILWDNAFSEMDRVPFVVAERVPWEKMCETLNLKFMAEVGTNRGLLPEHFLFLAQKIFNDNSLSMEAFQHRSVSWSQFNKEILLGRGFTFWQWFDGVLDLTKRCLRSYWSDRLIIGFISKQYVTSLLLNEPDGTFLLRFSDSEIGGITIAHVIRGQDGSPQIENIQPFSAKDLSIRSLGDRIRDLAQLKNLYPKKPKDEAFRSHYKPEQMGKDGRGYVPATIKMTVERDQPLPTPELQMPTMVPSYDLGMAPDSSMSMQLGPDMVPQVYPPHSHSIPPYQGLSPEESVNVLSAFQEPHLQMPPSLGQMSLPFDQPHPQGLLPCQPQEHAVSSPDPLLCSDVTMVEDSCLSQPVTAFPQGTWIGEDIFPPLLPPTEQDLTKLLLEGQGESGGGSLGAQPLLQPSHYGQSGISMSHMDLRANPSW
Outline: as §1

[3] = SKNO1 cells, read-out: DC50 S5 SKNO1
[4] = L1236 cells, read-out: DC50 S6 L1236
[5] = MB231 cells, read-out: DC50 S6 MB231
[6] = MOLM-16 cells, numeric bound, read-out: DC50 S5 MOLM-16
[7] = MOLM-16 cells, numeric bound, read-out: DC50 S6 MOLM-16
[8] = KU-812 cells, read-out: DC50 S5 KU-812
[9] = MOLM-16 cells, class symbols, read-out: DC50 S6 MOLM-16

DC50 [1, 3] [nM]	DC50 [2, 5] [nM]	DC50 [1, 8] [nM]	DC50 [2, 9] [nM]	Compound	DC50 [1, 6] [nM]	DC50 [2, 7] [nM]	other results
> 10000	> 10000			CN(C(=O)[C@@H]1C[C@@H](OCC(=O)NCCCCCCCCCC#Cc2cccc3c2CN(C2CCC(=O)NC2=O)C3=O)CN1C(=O)[C@@H](NC(=O)c1cc2cc(C(F)(F)P(=O)(O)O)ccc2s1)C(C)(C)C)c1ccc(Br)cc1 (stereo partly drawn) [Compound 415, ((2-(((2S)-1-((2S,4R)-2-((4-bromophenyl)(methyl)carbamoyl)-4-(2-((11-(2-(2,6-dioxopiperidin-3-yl)-1-oxoisoindolin-4-yl)undec-10-yn-1-yl)amino)-2-oxoethoxy)pyrrolidin-1-yl)-3,3-dimethyl-1-oxobutan-2-yl)carbamoyl)benzo[b]thiophen-5-yl)difluoromethyl)phosphonic acid]			DC50 [2, 4]: > 10000 nM
1000 to 10000		1000 to 10000		CC(C)(C)[C@H](NC(=O)c1cc2cc(C(F)(F)P(=O)(O)O)ccc2s1)C(=O)N1CCC[C@H]1C(=O)N(CCC(=O)NCCCC#Cc1cccc2c1CN(C1CCC(=O)NC1=O)C2=O)c1ccc(-c2ccccc2)cc1 (stereo partly drawn) [Compound 663, ((2-(((2S)-1-((2S)-2-([1,1′-biphenyl]-4-yl(3-((5-(2-(2,6-dioxopiperidin-3-yl)-1-oxoisoindolin-4-yl)pent-4-yn-1-yl)amino)-3-oxopropyl)carbamoyl)pyrrolidin-1-yl)-3,3-dimethyl-1-oxobutan-2-yl)carbamoyl)benzo[b]thiophen-5-yl)difluoromethyl)phosphonic acid]	> 300	> 300	
100 to 1000	> 10000	100 to 1000	> 10000	CC(C)(C)[C@H](NC(=O)c1cc2cc(C(F)(F)P(=O)(O)O)ccc2s1)C(=O)N1CCC[C@H]1C(=O)N(CCC(=O)NCCCC#Cc1cccc2c1CN(C1CCC(=O)NC1=O)C2=O)c1ccc(Br)cc1 (stereo partly drawn) [Compound 406, ((2-(((2S)-1-((2S)-2-((4-bromophenyl)(3-((5-(2-(2,6-dioxopiperidin-3-yl)-1-oxoisoindolin-4-yl)pent-4-yn-1-yl)amino)-3-oxopropyl)carbamoyl)pyrrolidin-1-yl)-3,3-dimethyl-1-oxobutan-2-yl)carbamoyl)benzo[b]thiophen-5-yl)difluoromethyl)phosphonic acid]			DC50 ([1]; MOLM-16 cells, class symbols, read-out: DC50 S5 MOLM-16): < 100 nM; DC50 ([2]; KU-812 cells, read-out: DC50 S6 KU-812): > 10000 nM; DC50 ([2]; SKNO1 cells, read-out: DC50 S6 SKNO1): > 10000 nM
> 10000		> 10000	> 10000	CC(C)(C)[C@H](NC(=O)c1cc2cc(C(F)(F)P(=O)(O)O)ccc2s1)C(=O)N1CCC[C@H]1C(=O)N(CCC(=O)NCCC#Cc1cccc2c1CN(C1CCC(=O)NC1=O)C2=O)c1ccc(Br)cc1 (stereo partly drawn) [Compound 614, ((2-(((2S)-1-((2S)-2-((4-bromophenyl)(3-((4-(2-(2,6-dioxopiperidin-3-yl)-1-oxoisoindolin-4-yl)but-3-yn-1-yl)amino)-3-oxopropyl)carbamoyl)pyrrolidin-1-yl)-3,3-dimethyl-1-oxobutan-2-yl)carbamoyl)benzo[b]thiophen-5-yl)difluoromethyl)phosphonic acid]	> 300		
> 10000	> 10000			CN(C(=O)[C@@H]1C[C@@H](OCC(=O)NCCCCCC#Cc2cccc3c2CN(C2CCC(=O)NC2=O)C3=O)CN1C(=O)[C@@H](NC(=O)c1cc2cc(C(F)(F)P(=O)(O)O)ccc2s1)C(C)(C)C)c1ccc(Br)cc1 (stereo partly drawn) [Compound 412, ((2-(((2S)-1-((2S,4R)-2-((4-bromophenyl)(methyl)carbamoyl)-4-(2-((7-(2-(2,6-dioxopiperidin-3-yl)-1-oxoisoindolin-4-yl)hept-6-yn-1-yl)amino)-2-oxoethoxy)pyrrolidin-1-yl)-3,3-dimethyl-1-oxobutan-2-yl)carbamoyl)benzo[b]thiophen-5-yl)difluoromethyl)phosphonic acid]			DC50 [2, 4]: > 10000 nM
			< 100	CC(C)(C)C(=O)OCOP(=O)(O)C(F)(F)c1ccc2sc(C(=O)N[C@H](C(=O)N3CCC[C@H]3C(=O)N(CCC(=O)NCCCC#Cc3cccc4c3CN(C3CCC(=O)NC3=O)C4=O)c3ccc(Br)cc3)C(C)(C)C)cc2c1 (stereo partly drawn) [Compound 653, ((((2-(((2S)-1-((2S)-2-((4-bromophenyl)(3-((5-(2-(2,6-dioxopiperidin-3-yl)-1-oxoisoindolin-4-yl)pent-4-yn-1-yl)amino)-3-oxopropyl)carbamoyl)pyrrolidin-1-yl)-3,3-dimethyl-1-oxobutan-2-yl)carbamoyl)benzo[b]thiophen-5-yl)difluoromethyl)(hydroxy)phosphoryl)oxy)methyl pivalate]	> 300		

Continued, compound first:

Compound	DC50 [1, 3] [nM]	DC50 [2, 5] [nM]	DC50 [1, 8] [nM]	DC50 [2, 9] [nM]	DC50 [1, 6] [nM]	DC50 [2, 7] [nM]	other results
Cc1ncsc1-c1ccc([C@H](CC(=O)NCCCCCCCC(=O)N[C@@H]2C[C@@H](C(=O)Nc3ncc(-c4ccccc4)s3)N(C(=O)[C@@H](NC(=O)c3cc4cc(C(F)(F)P(=O)(O)O)ccc4s3)C(C)(C)C)C2)NC(=O)[C@@H]2C[C@@H](O)CN2C(=O)[C@@H](NC(=O)C2(F)CC2)C(C)(C)C)cc1 [Compound 577, (difluoro(2-(((S)-1-((2S,4R)-4-(8-((S)-3-((2S,4R)-1-((S)-2-(1-fluorocyclopropane-1-carboxamido)-3,3-dimethylbutanoyl)-4-hydroxypyrrolidine-2-carboxamido)-3-(4-(4-methylthiazol-5-yl)phenyl)propanamido)octanamido)-2-((5-phenylthiazol-2-yl)carbamoyl)pyrrolidin-1-yl)-3,3-dimethyl-1-oxobutan-2-yl)carbamoyl)benzo[b]thiophen-5-yl)methyl)phosphonic acid]					> 300	> 300	
Cc1ncsc1-c1ccc([C@H](CC(=O)NCCOCCC(=O)N[C@@H]2C[C@@H](C(=O)Nc3ncc(-c4ccccc4)s3)N(C(=O)[C@@H](NC(=O)c3cc4cc(C(F)(F)P(=O)(O)O)ccc4s3)C(C)(C)C)C2)NC(=O)[C@@H]2C[C@@H](O)CN2C(=O)[C@@H](NC(=O)C2(F)CC2)C(C)(C)C)cc1 [Compound 580, (difluoro(2-(((S)-1-((2S,4R)-4-(3-(2-((S)-3-((2S,4R)-1-((S)-2-(1-fluorocyclopropane-1-carboxamido)-3,3-dimethylbutanoyl)-4-hydroxypyrrolidine-2-carboxamido)-3-(4-(4-methylthiazol-5-yl)phenyl)propanamido)ethoxy)propanamido)-2-((5-phenylthiazol-2-yl)carbamoyl)pyrrolidin-1-yl)-3,3-dimethyl-1-oxobutan-2-yl)carbamoyl)benzo[b]thiophen-5-yl)methyl)phosphonic acid]					> 300	> 300	
CC(C)(C)[C@H](NC(=O)c1cc2cc(C(F)(F)P(=O)(O)O)ccc2s1)C(=O)N1C[C@H](NC(=O)CCCCCC#Cc2cccc3c2CN(C2CCC(=O)NC2=O)C3=O)C[C@H]1C(=O)Nc1ncc(-c2ccccc2)s1 (stereo partly drawn) [Compound 567, ((2-(((2S)-1-((2S,4R)-4-(8-(2-(2,6-dioxopiperidin-3-yl)-1-oxoisoindolin-4-yl)oct-7-ynamido)-2-((5-phenylthiazol-2-yl)carbamoyl)pyrrolidin-1-yl)-3,3-dimethyl-1-oxobutan-2-yl)carbamoyl)benzo[b]thiophen-5-yl)difluoromethyl)phosphonic acid]					> 300	> 300	
Cc1ncsc1-c1ccc([C@H](CC(=O)NCCCCCCCCCC(=O)N[C@@H]2C[C@@H](C(=O)Nc3ncc(-c4ccccc4)s3)N(C(=O)[C@@H](NC(=O)c3cc4cc(C(F)(F)P(=O)(O)O)ccc4s3)C(C)(C)C)C2)NC(=O)[C@@H]2C[C@@H](O)CN2C(=O)[C@@H](NC(=O)C2(F)CC2)C(C)(C)C)cc1 [Compound 579, (difluoro(2-(((S)-1-((2S,4R)-4-(10-((S)-3-((2S,4R)-1-((S)-2-(1-fluorocyclopropane-1-carboxamido)-3,3-dimethylbutanoyl)-4-hydroxypyrrolidine-2-carboxamido)-3-(4-(4-methylthiazol-5-yl)phenyl)propanamido)decanamido)-2-((5-phenylthiazol-2-yl)carbamoyl)pyrrolidin-1-yl)-3,3-dimethyl-1-oxobutan-2-yl)carbamoyl)benzo[b]thiophen-5-yl)methyl)phosphonic acid]					> 300	> 300	
